Drawing on PubChem BioAssay AID1259407 (Chemical Carcinogenesis Research Information System (CCRIS), 2018), this text covers mutagenic call for 6 molecules.

The source made the active and inactive calls. How the calls were made is not given here.

The test system of this series is CCRIS mutagenicity, Ames/micronucleus/aberration tests. Nature of the series: CCRIS mutagenicity studies.
Where [1] appears, read: Test System: AMES SALMONELLA TYPHIMURIUM, Strain/Indicator: TA98, Metabolic Activation: NONE, Method: STANDARD PLATE.
Setting [2] is: Test System: AMES SALMONELLA TYPHIMURIUM, Strain/Indicator: TA98, Metabolic Activation: RAT, LIVER, S-9, AROCLOR 1254, Method: STANDARD PLATE.
The mark [3] stands for this setting: Test System: AMES SALMONELLA TYPHIMURIUM, Strain/Indicator: TA100, Metabolic Activation: NONE, Method: STANDARD PLATE.
Setting [4] is: Test System: AMES SALMONELLA TYPHIMURIUM, Strain/Indicator: TA100, Metabolic Activation: RAT, LIVER, S-9, AROCLOR 1254, Method: STANDARD PLATE.
The mark [5] stands for this setting: Test System: AMES SALMONELLA TYPHIMURIUM, Strain/Indicator: TA1537, Metabolic Activation: NONE, Method: STANDARD PLATE.
The mark [6] stands for this setting: Test System: AMES SALMONELLA TYPHIMURIUM, Strain/Indicator: TA1537, Metabolic Activation: RAT, LIVER, S-9, AROCLOR 1254, Method: STANDARD PLATE.
Setting [7] is: Test System: AMES SALMONELLA TYPHIMURIUM, Strain/Indicator: TA97, Metabolic Activation: NONE, Method: PREINCUBATION
[8] abbreviates: Test System: AMES SALMONELLA TYPHIMURIUM, Strain/Indicator: TA100, Metabolic Activation: NONE, Method: PREINCUBATION

As for `O=S(=O)(O)c1cccc2cccnc12`, the mutagenic call is “inactive; negative” under setting [1]; “inactive; negative” under setting [2]; “inactive; negative” under setting [3]; “inactive; negative” under setting [4]; “inactive; negative” (Test System: AMES SALMONELLA TYPHIMURIUM, Strain/Indicator: TA1535, Metabolic Activation: NONE, Method: STANDARD PLATE); “inactive; negative” (Test System: AMES SALMONELLA TYPHIMURIUM, Strain/Indicator: TA1535, Metabolic Activation: RAT, LIVER, S-9, AROCLOR 1254, Method: STANDARD PLATE). In addition, the mutagenic call runs as follows: under setting [5], “inactive; negative”; under setting [6], “inactive; negative”.

Turning to `Cc1cc(C)cc(N)c1`, the mutagenic call by setting is: (Test System: AMES SALMONELLA TYPHIMURIUM, Strain/Indicator: TA97, Metabolic Activation: HAMSTER, LIVER, S-9, AROCLOR 1254 (10%), Method: PREINCUBATION) “inactive; negative”; under setting [7], “inactive; negative”; (Test System: AMES SALMONELLA TYPHIMURIUM, Strain/Indicator: TA97, Metabolic Activation: RAT, LIVER, S-9, AROCLOR 1254 (10%), Method: PREINCUBATION) “inactive; negative”; (Test System: AMES SALMONELLA TYPHIMURIUM, Strain/Indicator: TA98, Metabolic Activation: HAMSTER, LIVER, S-9, AROCLOR 1254 (10%), Method: PREINCUBATION) “inactive; negative”; (Test System: AMES SALMONELLA TYPHIMURIUM, Strain/Indicator: TA98, Metabolic Activation: NONE, Method: PREINCUBATION) “inactive; negative”; (Test System: AMES SALMONELLA TYPHIMURIUM, Strain/Indicator: TA98, Metabolic Activation: RAT, LIVER, S-9, AROCLOR 1254 (10%), Method: PREINCUBATION) “inactive; negative”. Also, the mutagenic call reads like this: under setting [8], “inactive; negative”; (Test System: AMES SALMONELLA TYPHIMURIUM, Strain/Indicator: TA100, Metabolic Activation: RAT, LIVER, S-9, AROCLOR 1254 (10%), Method: PREINCUBATION) “inactive; negative”; (Test System: AMES SALMONELLA TYPHIMURIUM, Strain/Indicator: TA1535, Metabolic Activation: HAMSTER, LIVER, S-9, AROCLOR 1254 (10%), Method: PREINCUBATION) “inactive; negative”; (Test System: AMES SALMONELLA TYPHIMURIUM, Strain/Indicator: TA1535, Metabolic Activation: NONE, Method: PREINCUBATION) “inactive; negative”; (Test System: AMES SALMONELLA TYPHIMURIUM, Strain/Indicator: TA1535, Metabolic Activation: RAT, LIVER, S-9, AROCLOR 1254 (10%), Method: PREINCUBATION) “inactive; negative”; (Test System: AMES SALMONELLA TYPHIMURIUM, Strain/Indicator: TA1537, Metabolic Activation: HAMSTER, LIVER, S-9, AROCLOR 1254 (10%), Method: PREINCUBATION) “inactive; negative”.

Consider `CC(=O)Oc1ccc2c(c1)OC1(C)OOC21C` (configuration not stated), for which the mutagenic call under setting [8] is “active; positive”.

Take `Cc1c(N)c(=O)n(-c2ccccc2)n1C`: the mutagenic call is “active; positive” (Test System: AMES SALMONELLA TYPHIMURIUM, Strain/Indicator: TA97, Metabolic Activation: NONE, Method: STANDARD PLATE); “active; positive” (Test System: AMES SALMONELLA TYPHIMURIUM, Strain/Indicator: TA97, Metabolic Activation: RAT, LIVER, S-9, AROCLOR 1254, Method: STANDARD PLATE); “active; positive” (Test System: AMES SALMONELLA TYPHIMURIUM, Strain/Indicator: TA97A, Metabolic Activation: RAT, LIVER, S-9, AROCLOR 1254, Method: STANDARD PLATE); “inactive; negative” under setting [1]; “inactive; negative” under setting [2]; “inactive; negative” under setting [3]. The mutagenic call under setting [4] was “inactive; negative”; the mutagenic call (Test System: AMES SALMONELLA TYPHIMURIUM, Strain/Indicator: TA102, Metabolic Activation: NONE, Method: STANDARD PLATE) is “inactive; negative”; the mutagenic call (Test System: AMES SALMONELLA TYPHIMURIUM, Strain/Indicator: TA102, Metabolic Activation: RAT, LIVER, S-9, AROCLOR 1254, Method: STANDARD PLATE) was “inactive; negative”; the mutagenic call (Test System: AMES SALMONELLA TYPHIMURIUM, Strain/Indicator: TA104, Metabolic Activation: NONE, Method: STANDARD PLATE) is “inactive; negative”; the mutagenic call (Test System: AMES SALMONELLA TYPHIMURIUM, Strain/Indicator: TA104, Metabolic Activation: RAT, LIVER, S-9, AROCLOR 1254, Method: STANDARD PLATE) is “inactive; negative”; the mutagenic call under setting [5] was “inactive; negative”. Further, under setting [6], the mutagenic call is “inactive; negative”.

On to `O=Nc1ccc2ccc3cccc4ccc1c2c34`, for which the mutagenic call by setting is: (Test System: AMES SALMONELLA TYPHIMURIUM, Strain/Indicator: TA98 (1,8-DNP6), Metabolic Activation: NONE, Method: STANDARD PLATE) “active; positive”; (Test System: AMES SALMONELLA TYPHIMURIUM, Strain/Indicator: TA98(1,8-DNP6), Metabolic Activation: NONE, Method: STANDARD PLATE) “active; positive”; (Test System: AMES SALMONELLA TYPHIMURIUM, Strain/Indicator: TA98 (NR), Metabolic Activation: NONE, Method: STANDARD PLATE) “active; positive”; (Test System: AMES SALMONELLA TYPHIMURIUM, Strain/Indicator: TA98(NR), Metabolic Activation: NONE, Method: STANDARD PLATE) “active; positive”; under setting [1], “active; positive”; (Test System: CHINESE HAMSTER OVARY, Strain/Indicator: CHO (HGPRT), Metabolic Activation: NONE, Method: SUSPENSION) “active; positive”. Further, the mutagenic call runs as follows: (Test System: CHINESE HAMSTER OVARY, Strain/Indicator: CHO-K1-BH4 (HGPRT), Metabolic Activation: NONE, Method: SUSPENSION) “active; positive”; (Test System: CHINESE HAMSTER OVARY, Strain/Indicator: CHO/HGPRT, Metabolic Activation: NONE) “active; positive”.

With `c1ccc2[nH]ccc2c1`, the mutagenic call reads like this: under setting [7], “inactive; negative”; (Test System: AMES SALMONELLA TYPHIMURIUM, Strain/Indicator: TA97, Metabolic Activation: RAT, LIVER, S-9, AROCLOR 1254, Method: PREINCUBATION) “inactive; negative”; under setting [8], “inactive; negative”; (Test System: AMES SALMONELLA TYPHIMURIUM, Strain/Indicator: TA102, Metabolic Activation: NONE, Method: PREINCUBATION) “inactive; negative”; (Test System: AMES SALMONELLA TYPHIMURIUM, Strain/Indicator: TA102, Metabolic Activation: RAT, LIVER, S-9, AROCLOR 1254, Method: PREINCUBATION) “inactive; negative”.
